Results taken from patent US20170022201A1, “MACROCYLIC PYRIDINE DERIVATIVES” (Janssen Pharmaceutica NV, priority 2014, published 2017).

Biological target: T1, EF2K (Homo sapiens, UniProt O00418)
T1 construct: host or cells: LN-229 glioblastoma cell lysate
T1 sequence (O00418 1-725): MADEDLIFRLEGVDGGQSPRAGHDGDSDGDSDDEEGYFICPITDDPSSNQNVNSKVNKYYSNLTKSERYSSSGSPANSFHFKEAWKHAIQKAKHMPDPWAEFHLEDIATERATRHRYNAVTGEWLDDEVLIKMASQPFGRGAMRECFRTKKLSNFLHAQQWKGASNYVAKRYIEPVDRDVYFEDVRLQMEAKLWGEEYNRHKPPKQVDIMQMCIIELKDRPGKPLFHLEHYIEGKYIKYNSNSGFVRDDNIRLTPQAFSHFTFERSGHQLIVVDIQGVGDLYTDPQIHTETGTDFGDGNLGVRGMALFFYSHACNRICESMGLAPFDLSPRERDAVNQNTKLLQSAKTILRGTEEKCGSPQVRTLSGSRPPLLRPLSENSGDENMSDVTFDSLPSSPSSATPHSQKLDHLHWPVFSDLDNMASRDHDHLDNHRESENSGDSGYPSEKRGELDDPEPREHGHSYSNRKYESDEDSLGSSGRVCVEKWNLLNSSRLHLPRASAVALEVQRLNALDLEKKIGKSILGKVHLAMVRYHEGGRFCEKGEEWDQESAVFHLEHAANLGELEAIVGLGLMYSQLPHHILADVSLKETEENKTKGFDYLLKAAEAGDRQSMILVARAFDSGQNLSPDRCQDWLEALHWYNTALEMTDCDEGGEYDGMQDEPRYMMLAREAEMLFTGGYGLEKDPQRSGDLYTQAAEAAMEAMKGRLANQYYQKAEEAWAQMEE
Assay: Biochemical EF2K lysate-based kinase assay (AlphaLISA p-eEF2 Thr56)
Settings: LN-229 cell lysates, 10 mM ATP, pH 6.6; pIC50 = -log IC50 (M); read-out: eEF2K_C_alphalisa pIC50 (converted)
Summary of the method: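 LN-229 glioblastoma lysate supplied both EF2K and eEF2 substrate; compound incubated with lysate 15 minutes at room temperature at pH 6.6 with 10 mM Mg2+ and 10 mM ATP, then stopped with excess EDTA. Thr56-phosphorylated eEF2 detected by sandwich AlphaLISA, final read after overnight standing.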

| IC50 [M] | SMILES |
| --- | --- |
| 5.62e-06 | O=C1CN2CCN(CC2)Cc2cccc(c2)Nc2cc(ccn2)-c2ccc(nc2)NCCN1 [Compound 70] |
| 3.31e-07 | CC1CN2CCN1Cc1cccc(c1)Nc1cc(ccn1)-c1ccc(nc1)NCCCNC(=O)C2 (centres unmarked) [Compound 71] |
| 7.59e-07 | O=C1CN2CCC(CC2)Nc2cccc(c2)Nc2cc(ccn2)-c2cnc(nc2)NCCCN1 [Compound 106] |
| ~1.51e-05 | O=C1CNCCNc2ccc(cn2)-c2ccnc(c2)Nc2cccc(c2)CN2CCN1CC2 [Compound 144] |

Biological target: T2, eEF2K (Homo sapiens, UniProt O00418)
T2 construct: in the immortalized epithelial breast cell lines, MCF10A; host or cells: MCF10A immortalized breast epithelial cells
T2 sequence (O00418 1-725): T1 sequence (O00418 1-725)
Assay: EF2K cell-based assay (P-EF2 AlphaLISA, 2-deoxyglucose stimulated MCF10A cells)
Settings: 2.5 mM 2-deoxyglucose 4 h, phosphorylation of EF2 at Thr 56, pIC50 = -log IC50 (M), read-out: eEF2K_C_PThr56 pIC50 (converted)
Summary of the method: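 MCF10A cells pretreated with compound for 1 h, then stimulated with 2.5 mM 2-deoxyglucose for 4 h to deplete ATP and activate AMPK. Phospho-EF2 in lysates measured by AlphaLISA.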

| IC50 [M] | SMILES |
| --- | --- |
| > 3.02e-05 | O=C1CN2CCN(CC2)Cc2cccc(c2)Nc2cc(ccn2)-c2ccc(nc2)NCCN1 [Compound 70] |
| 2.45e-05 | CC1CN2CCN1Cc1cccc(c1)Nc1cc(ccn1)-c1ccc(nc1)NCCCNC(=O)C2 (centres unmarked) [Compound 71] |
| 2.88e-05 | O=C1CN2CCC(CC2)Nc2cccc(c2)Nc2cc(ccn2)-c2cnc(nc2)NCCCN1 [Compound 106] |
| > 3.02e-05 | O=C1CNCCNc2ccc(cn2)-c2ccnc(c2)Nc2cccc(c2)CN2CCN1CC2 [Compound 144] |

Biological target: PIK3C3 lipid kinase (Homo sapiens, UniProt Q8NEB9)
Assay: Biochemical Vps34 lipid kinase assay (ADP-Glo)
Settings: 1 h, single dose 1 μM; residual activity compared to control (DMSO); 20 μM ATP; read-out: VPS34_1microM_%ofcntrl
Summary of the method: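 ADP-Glo luminescence measured PIK3C3 (7.6 nM) activity with 50 μM substrate, 20 μM ATP (apparent Km), 3 mM MnCl2, HEPES pH 7.5, 60 min at 30° C. Compounds tested at 1 μM single dose (residual activity vs DMSO) or half-log series 10 μM–0.3 nM giving pIC50.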

PIK3C3 lipid kinase, sequence (Q8NEB9 whole entry): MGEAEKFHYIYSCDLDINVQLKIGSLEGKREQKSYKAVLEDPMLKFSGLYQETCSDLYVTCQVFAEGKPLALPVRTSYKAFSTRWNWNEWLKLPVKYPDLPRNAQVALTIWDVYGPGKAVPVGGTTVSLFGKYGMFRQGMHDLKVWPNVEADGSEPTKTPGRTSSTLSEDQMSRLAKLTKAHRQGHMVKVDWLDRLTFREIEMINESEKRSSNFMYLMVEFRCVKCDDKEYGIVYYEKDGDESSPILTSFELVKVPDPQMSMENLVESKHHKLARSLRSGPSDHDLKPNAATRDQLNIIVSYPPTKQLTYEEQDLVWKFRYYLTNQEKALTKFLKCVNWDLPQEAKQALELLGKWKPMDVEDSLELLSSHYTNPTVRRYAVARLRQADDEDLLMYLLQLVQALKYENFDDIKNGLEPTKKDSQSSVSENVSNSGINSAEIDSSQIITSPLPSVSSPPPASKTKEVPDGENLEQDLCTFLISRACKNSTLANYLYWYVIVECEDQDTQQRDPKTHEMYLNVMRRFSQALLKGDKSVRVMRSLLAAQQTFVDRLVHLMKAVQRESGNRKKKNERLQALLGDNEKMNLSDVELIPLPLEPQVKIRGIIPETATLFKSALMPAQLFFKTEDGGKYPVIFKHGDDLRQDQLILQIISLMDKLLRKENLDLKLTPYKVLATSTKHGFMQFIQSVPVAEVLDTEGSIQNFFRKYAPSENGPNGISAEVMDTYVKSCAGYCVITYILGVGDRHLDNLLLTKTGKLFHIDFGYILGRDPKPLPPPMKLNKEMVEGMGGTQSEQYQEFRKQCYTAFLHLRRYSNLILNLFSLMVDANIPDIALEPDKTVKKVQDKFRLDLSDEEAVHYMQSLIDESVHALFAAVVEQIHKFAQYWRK

| remaining activity at 1 µM [%] | SMILES |
| --- | --- |
| 72.6 | O=C1CN2CCN(CC2)Cc2cccc(c2)Nc2cc(ccn2)-c2ccc(nc2)NCCN1 [Compound 70] |
| 32.1 | CC1CN2CCN1Cc1cccc(c1)Nc1cc(ccn1)-c1ccc(nc1)NCCCNC(=O)C2 (centres unmarked) [Compound 71] |
| 22.4 | O=C1CN2CCC(CC2)Nc2cccc(c2)Nc2cc(ccn2)-c2cnc(nc2)NCCCN1 [Compound 106] |
| 53.7 | O=C1CNCCNc2ccc(cn2)-c2ccnc(c2)Nc2cccc(c2)CN2CCN1CC2 [Compound 144] |

Same assay, conditions: serial dilution 10 μM to 0.3 nM; 20 μM ATP; pIC50 = -log IC50 (M)

| IC50 [M] | SMILES |
| --- | --- |
| 5.89e-07 | O=C1CN2CCC(CC2)Nc2cccc(c2)Nc2cc(ccn2)-c2cnc(nc2)NCCCN1 [Compound 106] |

System: not given
Assay: not given
Settings: not given

| melting point [°C] | SMILES |
| --- | --- |
| 252 | O=C1CN2CCN(CC2)Cc2cccc(c2)Nc2cc(ccn2)-c2ccc(nc2)NCCN1 [Compound 70] |
| 162 | CC1CN2CCN1Cc1cccc(c1)Nc1cc(ccn1)-c1ccc(nc1)NCCCNC(=O)C2 (centres unmarked) [Compound 71] |
| 255.3 to 256.8 | O=C1CN2CCC(CC2)Nc2cccc(c2)Nc2cc(ccn2)-c2cnc(nc2)NCCCN1 [Compound 106] |
| 143 | O=C1CNCCNc2ccc(cn2)-c2ccnc(c2)Nc2cccc(c2)CN2CCN1CC2 [Compound 144] |
